Tested on: RBL-2H3-Zellen
Assay: Antigen-induced (DNP-BSA) activation of sensitised RBL-2H3 cells, fluorometric cytoplasmic Ca2+ measurement
Assay type: cell-based, rat
Settings: 10 µM
From the text: Verwendet werden einzelne an Glasplättchen adhärente RBL-2H3-Zellen (eine den Mastzellen verwandte Tumorzellinie).
Die Kultivierung und Anhaftung der RBL-2H3-Zellen erfolgt in der HIDE und BEAVEN (1991) beschriebenen Methode. Zur Sensibilisierung der adhäsiven RBL-2H3-Zellen werden die Zellen 2 Stunden bei Raumtemperatur mit einer 1:2000 verdünnten käuflichen Gammaglobulin E-Lösung gegen einen Dinitrophenol-Rinderserumalbumin-Komplex (DNP-BSA-Antigen) inkubiert. Anschließend werden die Zellen gewaschen. Durch Zusatz von 0,1 ml DNP-BSA-Lösung (10 µg/ml) erfolgt eine massive immunologische Zellaktivierung, die durch einen cytoplasmatischen Ca^2+-overload vermittelt wird. Die fluorometrische Calciummessung im Cytoplasma einzelner adhärenter RBL-2H3-Zellen erfolgt in Analogie zu der von KUDO und OGURA (1986) für neuronale Zellen beschriebenen Methode, die auch weiter oben in dieser Beschreibung erläutert wird.

## O=C(O)c1cc(=O)c2c(OCC(O)COc3cccc4oc(C(=O)O)cc(=O)c34)cccc2o1 [Chromoglycat]
  Hemmung der antigen-induzierten Zellaktivierung: ca. 50%
